Experimental data taken from patent EP2931723B1, “NEW BICYCLIC COMPOUNDS AND THEIR USE AS ANTIBACTERIAL AGENTS AND -LACTAMASE INHIBITORS” (Fedora Pharmaceuticals Inc., priority 2012, dated 2014).

Experiments:
Assay in all cases: MIC, antibacterial and synergistic activity
Assay type in all cases: cell-based
E. coli ATCC 25922 = E. coli ATCC 25922 (Wt)
A. baumanii JMI 2659 = A. baumanii JMI 2659 (Ges-14 (Cpase))
E.coli JMI 4103 = E.coli JMI 4103 (KPC-2, Tem-1, CMY-Type)
E. coli JMI 4080 = test system: E. coli JMI 4080
E. coli JMI 2665 = test system: E. coli JMI 2665
Description: (§1) In the Tables 10 - 12, compounds herein disclosed were tested in combination with various antibiotics against metallo β-lactamase producing bacteria. Table 3: Synergy of the inhibitor Ex. 1 (4 µg/mL) in combination with antibiotics

E. coli JMI 2671 = test system: E. coli JMI 2671
Description: as §1

K. pneumo JMI 4106 = K. pneumo JMI 4106 (KPC-3, TEM-1, SHV-12, SHV-141)
E. coli JMI 2692 = E. coli JMI 2692 (NDM-1, TEM-1, CTX-M-15)
Description: (§2) In the Tables 10 - 12, compounds herein disclosed were tested in combination with various antibiotics against metallo β-lactamase producing bacteria.

K. pneumo JMI 2693 = K. pneumo JMI 2693 (NDM-1 (Cpase))
Description: as §2

K. pneumo JMI 2697 = K. pneumo JMI 2697 (IMP-4 (Cpase))
Description: as §2

K. pneumo JMI 2681 = K. pneumo JMI 2681 (Oxa-48 (Cpase))
P. aerug JMI 149 = P. aerug JMI 149 (Bla+++D+)
E. cloacae JMI 36 = E. cloacae JMI 36 (P99)
K.pneumo JMI 4109 = K.pneumo JMI 4109 (SHV-1, SHV-12); substance alone
K. pneumo JMI 2673 = K. pneumo JMI 2673 (CTX-M14 (ESBL)); substance alone
K. pneumo JMI 2674 = K. pneumo JMI 2674 (CTX-M15 (ESBL)); substance alone
K. pneumo JMI 4088 = K. pneumo JMI 4088 (KPC-3 (Cpase)); substance alone
P. aerug JMI 2686 = P. aerug JMI 2686 (KPC-2 (Cpase)); substance alone
E. coli JMI 10767 = E. coli JMI 10767 (Wt)
E. coli JMI 10768 = E. coli JMI 10768 (CTX-M15 (Weak ESBL)); Meropenem + inhibitor at 4 µg/mL
E. coli JMI 10770 = settings: Escherichia coli, JMI10770; E. coli JMI 10770 (CTX-M15 (Hyper ESBL)); substance alone
E. coli JMI 11103 = test system: E. coli JMI 11103
[1] = Aztreonam + inhibitor at 4 µg/mL
[2] = Ceftazidime + inhibitor at 4 µg/mL
[3] = Meropenem + inhibitor at 4 µg/mL

## O=C(NNC(=O)[C@H]1CC[C@H]2CN1C(=O)N2OS(=O)(=O)O)C1CC1 (stereo in doubt) [Ex. 7, (2R,5S)-N'-(cyclopropylcarbonyl)-7-oxo-6-(sulfooxy)-1,6-diazabicyclo[3.2.1]octane-2-carbohydrazide]
E. coli ATCC 25922; [1]
  MIC Aztreonam + inhibitor: ≤0.0625 µg/mL
E. coli ATCC 25922; [2]
  MIC Ceftazidime + inhibitor: ≤0.25 µg/mL
E. coli ATCC 25922; [3]
  MIC Meropenem + inhibitor: ≤0.0312 µg/mL
E. coli ATCC 25922; Escherichia coli, ATCC25922, substance alone
  MIC: > 16 µg/mL
A. baumanii JMI 2659; [1]
  MIC Aztreonam + inhibitor: >4 µg/mL
A. baumanii JMI 2659; [2]
  MIC Ceftazidime + inhibitor: >16 µg/mL
A. baumanii JMI 2659; [3]
  MIC Meropenem + inhibitor: >2 µg/mL
A. baumanii JMI 2659; Acinetobacter baumannii, JMI2659, substance alone, read-out: MIC
  MIC: > 16 µg/mL
E.coli JMI 4103; [1]
  MIC Aztreonam + inhibitor: ≤0.062 µg/mL
E.coli JMI 4103; [2]
  MIC Ceftazidime + inhibitor: ≤0.25 µg/mL
E.coli JMI 4103; [3]
  MIC Meropenem + inhibitor: ≤0.0312 µg/mL
E.coli JMI 4103; Escherichia coli, JMI4103, substance alone
  MIC: 2 µg/mL
E. coli JMI 4080; E. coli JMI 4080 (Tem-10), Aztreonam + inhibitor at 4 µg/mL
  MIC Aztreonam + inhibitor: ≤0.062 µg/mL
E. coli JMI 4080; E. coli JMI 4080 (Tem-10), Ceftazidime + inhibitor at 4 µg/mL
  MIC Ceftazidime + inhibitor: ≤0.25 µg/mL
E. coli JMI 4080; E. coli JMI 4080 (Tem-10), Meropenem + inhibitor at 4 µg/mL
  MIC Meropenem + inhibitor: ≤0.0312 µg/mL
E. coli JMI 4080; Escherichia coli, JMI4080, E. coli JMI 4080 (Tem-10), substance alone
  MIC: 4 µg/mL
E. coli JMI 2665; E. coli JMI 2665 (CMY-2 (Plasmid Cpase)), Aztreonam + inhibitor at 4 µg/mL
  MIC Aztreonam + inhibitor: ≤0.062 µg/mL
E. coli JMI 2665; E. coli JMI 2665 (CMY-2 (Plasmid Cpase)), Ceftazidime + inhibitor at 4 µg/mL
  MIC Ceftazidime + inhibitor: ≤0.25 µg/mL
E. coli JMI 2665; Escherichia coli, JMI2665
  MIC: 2 µg/mL
E. coli JMI 2671; E. coli JMI 2671 (VIM-19 (Cpase)), Aztreonam + inhibitor at 4 µg/mL
  MIC Aztreonam + inhibitor: ≤0.062 µg/mL
E. coli JMI 2671; E. coli JMI 2671 (VIM-19 (Cpase)), Ceftazidime + inhibitor at 4 µg/mL
  MIC Ceftazidime + inhibitor: 0.5 µg/mL
E. coli JMI 2671; E. coli JMI 2671 (VIM-19 (Cpase)), Meropenem + inhibitor at 4 µg/mL
  MIC Meropenem + inhibitor: 0.5 µg/mL
E. coli JMI 2671; Escherichia coli, JMI2671, E. coli JMI 2671 (VIM-19 (Cpase)), substance alone
  MIC: 8 µg/mL
K. pneumo JMI 4106; [1]
  MIC Aztreonam + inhibitor: 0.125 µg/mL
K. pneumo JMI 4106; [2]
  MIC Ceftazidime + inhibitor: ≤0.25 µg/mL
K. pneumo JMI 4106; [3]
  MIC Meropenem + inhibitor: ≤0.0312 µg/mL
K. pneumo JMI 4106; substance alone, read-out: MIC
  MIC: 16 µg/mL
E. coli JMI 2692; [1]
  MIC Aztreonam + inhibitor: ≤0.062 µg/mL
E. coli JMI 2692; [2]
  MIC Ceftazidime + inhibitor: ≤0.25 µg/mL
E. coli JMI 2692; [3]
  MIC Meropenem + inhibitor: 0.5 µg/mL
E. coli JMI 2692; Escherichia coli, JMI2692, substance alone, read-out: MIC
  MIC: 8 µg/mL
K. pneumo JMI 2693; [1]
  MIC Aztreonam + inhibitor: 1 µg/mL
K. pneumo JMI 2693; [2]
  MIC Ceftazidime + inhibitor: 2 µg/mL
K. pneumo JMI 2693; [3]
  MIC Meropenem + inhibitor: 0.25 µg/mL
K. pneumo JMI 2693; substance alone
  MIC: > 16 µg/mL
K. pneumo JMI 2697; [1]
  MIC Aztreonam + inhibitor: ≤0.062 µg/mL
K. pneumo JMI 2697; [2]
  MIC Ceftazidime + inhibitor: 16 µg/mL
K. pneumo JMI 2697; [3]
  MIC Meropenem + inhibitor: 2 µg/mL
K. pneumo JMI 2697; substance alone
  MIC: > 16 µg/mL
K. pneumo JMI 2681; [1]
  MIC Aztreonam + inhibitor: 0.25 µg/mL
K. pneumo JMI 2681; [2]
  MIC Ceftazidime + inhibitor: 0.5 µg/mL
K. pneumo JMI 2681; [3]
  MIC Meropenem + inhibitor: 0.25 µg/mL
K. pneumo JMI 2681; substance alone, read-out: MIC
  MIC: > 16 µg/mL
P. aerug JMI 149; [1]
  MIC Aztreonam + inhibitor: >4 µg/mL
P. aerug JMI 149; [2]
  MIC Ceftazidime + inhibitor: >16 µg/mL
P. aerug JMI 149; [3]
  MIC Meropenem + inhibitor: >2 µg/mL
P. aerug JMI 149; substance alone, read-out: MIC
  MIC: > 16 µg/mL
E. cloacae JMI 36; [1]
  MIC Aztreonam + inhibitor: 0.125 µg/mL
E. cloacae JMI 36; [2]
  MIC Ceftazidime + inhibitor: 0.5 µg/mL
E. cloacae JMI 36; [3]
  MIC Meropenem + inhibitor: 0.125 µg/mL
E. cloacae JMI 36; Enterobacter cloacae, JMI36, substance alone, read-out: MIC
  MIC: > 16 µg/mL
K.pneumo JMI 4109
  MIC: 2 µg/mL
K. pneumo JMI 2673
  MIC: > 16 µg/mL
K. pneumo JMI 2674
  MIC: > 16 µg/mL
K. pneumo JMI 4088
  MIC: > 16 µg/mL
P. aerug JMI 2686
  MIC: > 16 µg/mL
E. coli JMI 10767; [3]
  MIC Meropenem + inhibitor: ≤0.0312 µg/mL
E. coli JMI 10767; Escherichia coli, JMI10767, substance alone
  MIC: 8 µg/mL
E. coli JMI 10768
  MIC Meropenem + inhibitor: ≤0.0312 µg/mL
E. coli JMI 10770
  MIC: 8 µg/mL
E. coli JMI 11103; E. coli JMI 11103 (CTX-M15 (Intermediate ESBL)), Aztreonam + inhibitor at 4 µg/mL
  MIC Aztreonam + inhibitor: ≤0.062 µg/mL
E. coli JMI 11103; E. coli JMI 11103 (CTX-M15 (Intermediate ESBL)), Ceftazidime + inhibitor at 4 µg/mL
  MIC Ceftazidime + inhibitor: ≤0.25 µg/mL
E. coli JMI 11103; E. coli JMI 11103 (CTX-M15 (Intermediate ESBL)), Meropenem + inhibitor at 4 µg/mL
  MIC Meropenem + inhibitor: ≤0.0312 µg/mL
E. coli JMI 11103; Escherichia coli, JMI11103, E. coli JMI 11103 (CTX-M15 (Intermediate ESBL)), substance alone
  MIC: 16 µg/mL
